In paper PMC7377239, “Cardiovascular Effects of Polychlorinated Biphenyls and Their Major Metabolites” (Environmental Health Perspectives, 2020):
Where a name gives a salt, the structure may show the parent alone. Read-outs that look alike come from different tables or passages of the source.

What was measured:
[1] = tested on: iCell endothelial cells (human iPSC-derived ECs); test: High-content imaging cytotoxicity in iCell endothelial cells, 24 h; format: cell-based; details: Homo sapiens, Endothelial cell, endothelial cells (endo), 24 hr
Summary of the method: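 Human iPSC-derived endothelial cells (passages 1–5) were grown to a fibronectin-coated monolayer, then exposed 24 h at 37 °C with 0.5% DMSO vehicle. Staining was Hoechst 33342, MitoTracker Orange and calcein AM, read by high-content imaging. Point of departure came from 4-parameter logistic fits, with a 1-SD vehicle cutoff and 100 µM as the top concentration.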

[2] = tested on: HUVECs; test: High-content imaging cytotoxicity in HUVECs, 24 h; format: cell-based, human; details: Homo sapiens, HUVEC, 24 h, HUVEC, 24 hr
Summary of the method: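 Point-of-departure values derive from four-parameter logistic fits of vehicle-normalized imaging phenotypes (Hoechst 33342, MitoTracker Orange, calcein AM). The fits follow 24 h exposure of HUVEC monolayers at 37°C and 5% CO2, with a top tested concentration of 100μM.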

Measured: minimal effective concentration

O=S(=O)(O)Oc1cc(-c2ccccc2)ccc1Cl [3-PCB 3 sulfate]
100 µM: [1]; cyto, read-out: POD endo.cyto.24hr | [1]; mito, read-out: POD endo.mito.24hr | [1]; mitoint, read-out: POD endo.mitoint.24hr | [1]; nma, read-out: POD endo.nma.24hr | [1]; tc, read-out: POD endo.tc.24hr | [2]; cyto, read-out: POD huvec.cyto.24hr | [2]; mito, read-out: POD huvec.mito.24hr | [2]; mitoint, read-out: POD huvec.mitoint.24hr | [2]; nma, read-out: POD huvec.nma.24hr | [2]; tc, read-out: POD huvec.tc.24hr
